Experimental data as given in ChEMBL document CHEMBL1201862, “PubChem BioAssay data set” (2004).
Activity calls are given as the source filed them.

Legend:
[1] = molecular target: Cytochrome P450 3A4 (Homo sapiens, UniProt P08684);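 also: CYP3A4 tested as one member of a cytochrome P450 panel screen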
[2] = system: Streptococcus sp. 'group A'; experiment: growth inhibition of control SK(-) GAS strain, dose response, counter-screen for streptokinase expression inhibitor project, luminescence, kanamycin, BacTiterGlo, confirmation (AID 1900); type: functional, organism-based
[3] = system: Streptococcus; experiment: Group A Streptococcus viability loss, dose response, counter-screen for streptokinase expression inhibitor project, luminescence, BacTiterGlo (AID 1915); type: functional, organism-based;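 also: potency for reduction of bacterial viability or growth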
[4] = molecular target: T1, Streptokinase A (Streptococcus pyogenes serotype M1, UniProt P10520); experiment: S. pyogenes streptokinase expression inhibitors, potency, dose response, plasminogen activation absorbance, OD405 (AID 1914); type: functional, Streptococcus pyogenes M1 GAS;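 also: secreted streptokinase activity via plasminogen activation per viability signal from cell pellet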
T1 sequence (P10520 whole entry): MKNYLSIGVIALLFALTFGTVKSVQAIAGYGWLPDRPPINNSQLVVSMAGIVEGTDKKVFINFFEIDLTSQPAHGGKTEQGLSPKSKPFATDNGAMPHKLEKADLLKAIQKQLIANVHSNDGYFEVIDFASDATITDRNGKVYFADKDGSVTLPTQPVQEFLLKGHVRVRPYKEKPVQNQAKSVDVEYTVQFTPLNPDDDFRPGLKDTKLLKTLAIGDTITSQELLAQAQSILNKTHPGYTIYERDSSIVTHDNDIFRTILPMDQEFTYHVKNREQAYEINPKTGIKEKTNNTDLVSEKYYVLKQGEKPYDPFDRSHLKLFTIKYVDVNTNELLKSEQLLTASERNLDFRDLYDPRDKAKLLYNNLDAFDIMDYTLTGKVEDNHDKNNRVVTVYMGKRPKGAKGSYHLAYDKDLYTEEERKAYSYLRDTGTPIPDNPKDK

[5] = Luminescence Cell-Based Dose Retest to Confirm Inhibitors of Cancer Stem Cells. [Related pubchem assays (depositor defined):AID2717, AID2721]; type: functional; settings: Homo sapiens
[6] = molecular target: T2, Polyadenylate-binding protein 1 (Homo sapiens, UniProt P11940); experiment: PABP1 MLLE–PAM2 binding inhibitor potency, dose response, biochemical, fluorescence polarization, FITC-PAM2 peptide (AID 602259); type: functional; settings: read-out: IC50_Mean
T2 sequence (P11940 whole entry): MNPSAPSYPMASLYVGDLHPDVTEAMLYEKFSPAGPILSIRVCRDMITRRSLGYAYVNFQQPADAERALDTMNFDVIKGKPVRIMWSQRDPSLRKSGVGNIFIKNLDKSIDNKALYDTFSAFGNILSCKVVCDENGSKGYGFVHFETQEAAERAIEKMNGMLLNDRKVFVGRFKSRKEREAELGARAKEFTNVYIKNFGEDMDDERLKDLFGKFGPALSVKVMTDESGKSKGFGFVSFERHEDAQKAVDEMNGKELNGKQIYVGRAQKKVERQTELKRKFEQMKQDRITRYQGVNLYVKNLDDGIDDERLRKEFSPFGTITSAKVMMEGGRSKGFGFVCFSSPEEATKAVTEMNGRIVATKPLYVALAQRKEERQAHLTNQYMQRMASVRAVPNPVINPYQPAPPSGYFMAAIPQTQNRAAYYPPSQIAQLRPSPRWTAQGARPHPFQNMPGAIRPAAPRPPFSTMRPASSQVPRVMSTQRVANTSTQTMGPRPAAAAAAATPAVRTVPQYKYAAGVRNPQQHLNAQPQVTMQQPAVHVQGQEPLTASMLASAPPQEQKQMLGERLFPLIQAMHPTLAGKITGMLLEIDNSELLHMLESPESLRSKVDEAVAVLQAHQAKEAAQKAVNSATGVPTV

[7] = molecular target: T2, Polyadenylate-binding protein 1; experiment: PABP1 MLLE–PAM2 interaction inhibitors, dose response, miRNA deadenylation inhibitor project, biochemical, fluorescence polarization, Cy5-PAM2 peptide, secondary (AID 602260); type: functional; settings: read-out: IC50_Mean
[8] = growth suppression of beta-catenin-knockout colon cells, dose response, cell-based, HCT116, human colon tumor (AID 1045); type: functional;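 also: HCT116 colon tumor cells with beta catenin knocked out; cells exposed to compound for 60 hours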
[9] = growth suppression of PTEN-null colon cells, dose response, cell-based, HCT116 PTEN knockout (AID 1047); type: functional;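 also: HCT116 colon tumor cells with PTEN knocked out; cells exposed to compound for 60 hours before readout; potency for loss of cell viability measured by luminescence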
[10] = molecular target: T3, Corticotropin-releasing factor receptor 2/Corticotropin-releasing factor-binding protein (Homo sapiens, UniProt P24387+Q13324); experiment: Dose Response confirmation of uHTS hits for small molecule antagonists of the CRF-binding protein and CRF-R2 receptor complex.; type: functional; settings: read-out: IC50_Mean
T3 sequence (Q13324 whole entry): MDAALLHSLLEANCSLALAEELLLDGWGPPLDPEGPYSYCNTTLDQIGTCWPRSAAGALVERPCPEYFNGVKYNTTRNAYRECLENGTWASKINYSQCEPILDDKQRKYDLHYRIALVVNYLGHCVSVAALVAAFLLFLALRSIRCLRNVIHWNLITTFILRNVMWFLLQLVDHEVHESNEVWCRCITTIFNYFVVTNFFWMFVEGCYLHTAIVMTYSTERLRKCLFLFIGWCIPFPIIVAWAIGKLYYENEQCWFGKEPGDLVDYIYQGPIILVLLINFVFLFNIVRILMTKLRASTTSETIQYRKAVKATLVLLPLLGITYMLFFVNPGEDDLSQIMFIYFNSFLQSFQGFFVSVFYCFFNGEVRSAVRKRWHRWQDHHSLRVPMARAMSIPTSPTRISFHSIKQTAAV
T3 sequence (P24387 whole entry): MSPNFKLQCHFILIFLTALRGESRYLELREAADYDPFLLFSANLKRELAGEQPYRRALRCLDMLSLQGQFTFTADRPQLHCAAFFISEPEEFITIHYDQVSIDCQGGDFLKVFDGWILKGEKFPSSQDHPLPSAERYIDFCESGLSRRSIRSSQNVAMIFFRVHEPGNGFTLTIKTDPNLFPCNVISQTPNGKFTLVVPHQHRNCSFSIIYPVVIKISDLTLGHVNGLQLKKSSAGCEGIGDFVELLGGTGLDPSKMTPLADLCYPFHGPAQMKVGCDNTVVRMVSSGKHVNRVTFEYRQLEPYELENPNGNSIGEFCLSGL

[11] = molecular target: T3, Corticotropin-releasing factor receptor 2/Corticotropin-releasing factor-binding protein; experiment: activators of CRF receptor 2 with binding protein – uHTS hits, confirmation (AID 602473); type: functional; settings: read-out: EC50_Mean
[12] = system: H4; experiment: Luminescence Cell-Based Dose Response HTS to Identify Activators of 5'UTR Stem-Loop Driven Prion Protein mRNA Translation in H4 Neuroglioblastoma Cells. [Related pubchem assays: 1829 (Project Summary), 1814 (Primary HTS)]; type: functional; settings: Homo sapiens
[13] = Luminescence Cell-Based Dose Response HTS to Identify Activators of Luciferase Translation or Activity in H4 […] Cells. [Related pubchem assays: 1829 (Project Summary), 1814 (Primary HTS)]; type: functional
[14] = Luminescence Cell-Based Dose Confirmation HTS to Identify Activators of 5'UTR Stem-Loop Driven Alpha-Synuclein mRNA Translation in H4 Neuroglioblastoma Cells. [Related pubchem assays: 1829 (Project Summary), 1814 (Primary HTS)]; type: functional
[15] = molecular target: T4, Cytochrome P450 1A2 (Homo sapiens, UniProt P05177);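 also: PubChem cytochrome P450 panel assay, CYP1A2 panel member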
T4 sequence (P05177 whole entry): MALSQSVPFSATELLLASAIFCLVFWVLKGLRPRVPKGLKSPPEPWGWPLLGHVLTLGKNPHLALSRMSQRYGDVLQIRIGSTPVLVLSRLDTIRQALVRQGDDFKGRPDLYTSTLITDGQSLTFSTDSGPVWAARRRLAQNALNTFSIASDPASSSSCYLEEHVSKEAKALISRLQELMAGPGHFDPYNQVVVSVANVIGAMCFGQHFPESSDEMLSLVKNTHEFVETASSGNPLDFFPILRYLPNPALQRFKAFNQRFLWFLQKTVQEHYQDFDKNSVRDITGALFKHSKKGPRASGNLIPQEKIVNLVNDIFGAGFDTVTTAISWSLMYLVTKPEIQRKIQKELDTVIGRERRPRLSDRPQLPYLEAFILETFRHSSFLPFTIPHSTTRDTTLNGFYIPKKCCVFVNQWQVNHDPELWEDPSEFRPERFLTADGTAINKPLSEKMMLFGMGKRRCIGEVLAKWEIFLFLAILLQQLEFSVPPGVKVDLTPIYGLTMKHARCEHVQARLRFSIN

[16] = molecular target: Cytochrome P450 2C9 (Homo sapiens, UniProt P11712)
Sequence of Cytochrome P450 2C9 (P11712 whole entry): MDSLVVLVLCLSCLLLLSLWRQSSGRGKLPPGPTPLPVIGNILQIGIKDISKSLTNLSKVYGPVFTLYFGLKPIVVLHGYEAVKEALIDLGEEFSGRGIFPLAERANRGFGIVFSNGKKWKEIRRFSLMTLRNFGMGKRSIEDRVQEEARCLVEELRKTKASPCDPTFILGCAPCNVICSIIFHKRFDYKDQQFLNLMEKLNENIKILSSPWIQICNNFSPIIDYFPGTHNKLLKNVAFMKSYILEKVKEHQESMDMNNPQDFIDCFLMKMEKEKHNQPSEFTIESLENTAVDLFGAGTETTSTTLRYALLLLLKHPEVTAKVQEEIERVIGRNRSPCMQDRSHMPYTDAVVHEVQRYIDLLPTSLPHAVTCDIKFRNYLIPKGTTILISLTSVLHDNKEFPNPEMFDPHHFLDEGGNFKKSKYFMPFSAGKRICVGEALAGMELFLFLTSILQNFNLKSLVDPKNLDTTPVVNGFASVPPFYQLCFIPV

Sequence of Cytochrome P450 3A4 (P08684 whole entry): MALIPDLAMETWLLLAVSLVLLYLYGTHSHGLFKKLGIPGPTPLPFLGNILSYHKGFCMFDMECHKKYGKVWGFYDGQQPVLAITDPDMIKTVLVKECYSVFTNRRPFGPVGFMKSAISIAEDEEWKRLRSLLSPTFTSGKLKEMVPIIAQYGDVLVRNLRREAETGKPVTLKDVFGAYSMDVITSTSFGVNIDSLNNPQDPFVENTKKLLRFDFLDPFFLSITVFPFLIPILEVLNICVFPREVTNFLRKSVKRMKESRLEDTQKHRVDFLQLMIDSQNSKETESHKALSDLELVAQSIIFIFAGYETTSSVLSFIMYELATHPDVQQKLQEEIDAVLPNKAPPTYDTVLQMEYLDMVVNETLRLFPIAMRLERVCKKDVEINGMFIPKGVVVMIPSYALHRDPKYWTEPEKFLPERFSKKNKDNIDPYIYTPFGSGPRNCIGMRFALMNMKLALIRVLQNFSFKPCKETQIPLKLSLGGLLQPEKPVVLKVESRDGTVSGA

| Compound | EC50 [2] | EC50 [3] | EC50 [4] | IC50 [6] | IC50 [7] | also measured |
| --- | --- | --- | --- | --- | --- | --- |
| O=C1c2ccccc2C2=Nc3ccccc3SC(c3ccccc3F)C12 (stereo unspecified) | 8.24 µM (active) | 12.7 µM (active) | 4.91 µM (active) |  |  | AC50 [1]: 0.355 µM (inconclusive) |
| Cc1ccc2c(c1)c1ncn(CCC3=CCCCC3)c(=O)c1n2C |  |  |  |  |  | AC50 [5]: 1 µM (active) |
| O=c1c2ccccc2nc(/C=C/c2ccc(Br)cc2)n1CCO |  |  |  |  |  | AC50 [5]: 10.5 µM (active) |
| O=C(NC(=S)Nc1ccccc1N1CCCCC1)c1ccco1 |  |  |  | > 66 µM (inactive) | > 66 µM (inactive) |  |
| COC(=O)c1cc(-c2ccc(OC)cc2F)nc2nc(SC)nc(O)c12 | 8.08 µM (active) | 23.3 µM (active) | > 150 µM (not active) |  |  |  |
| N#Cc1nc(-c2ccc(OCc3ccccc3Cl)cc2)oc1NCCCn1ccnc1 | 4.38 µM (active) | > 150 µM (not active) | 16.6 µM (active) |  |  |  |
| CCCn1c(NC(=O)c2cccc(C)c2C)nc2ccccc21 | 7.43 µM (active) | > 150 µM (not active) | > 150 µM (not active) |  |  |  |
| COc1c(F)c(F)c(-c2csc(N)n2)c(F)c1F |  |  |  | > 66 µM (inactive) | > 66 µM (inactive) |  |
| O=C1CSC(=S)N1c1cccnc1 |  |  |  | > 66 µM (inactive) | > 66 µM (inactive) |  |
| Cc1cccc2nc(CSCc3ccco3)cn12 |  |  |  | > 66 µM (inactive) | > 66 µM (inactive) |  |
| COc1ccc(C2=NOC(CNC(N)=S)C2)cc1 (stereo unspecified) |  |  | > 150 µM (not active) |  |  |  |
| COc1c(Cl)cnn(-c2ccc(C)cc2)c1=O |  |  |  |  |  | EC50 [8]: 11.5 µM (active); EC50 [9]: 15.5 µM (active) |
| CCOc1ccc(C(=O)c2cccs2)cc1 |  |  |  |  |  | IC50 [10]: > 47.1 µM (inactive); EC50 [11]: > 53 µM (inactive); EC50 [12]: 11.4 µM (active); EC50 [13]: 13.5 µM (active); EC50 [14]: 55 µM (active) |
| O=C(NC(=S)Nc1cccnc1)c1cccc(Cl)c1 |  |  |  | > 66 µM (inactive) | > 66 µM (inactive) |  |
| CS(=O)(=O)c1ccc([C@@H](O)[C@@H](CO)NC(=O)C(Cl)Cl)cc1 [THIAMPHENICOL] | 1.89 µM (active) | 4.55 µM (active) | 4.02 µM (active) |  |  |  |
| CCOC(=O)N1CCN(C(=O)CSCc2nc(-c3ccccc3F)oc2C)CC1 |  |  |  | > 66 µM (inactive) | > 66 µM (inactive) | AC50 [1]: 25.1 µM (inconclusive); AC50 [15]: 12.6 µM (inconclusive); AC50 [16]: 14.1 µM (inconclusive) |
| COc1ccc(C(C)=O)cc1COc1cc(C)c(Cl)c(C)c1 | > 150 µM (not active) | > 150 µM (not active) | > 150 µM (not active) |  |  |  |
| Cc1ccc(S(=O)(=O)CNC(=S)c2ccc3ccccc3c2)cc1 |  |  | > 150 µM (not active) |  |  |  |
| COc1ccc(S(=O)(=O)NCC2CCCN(Cc3ccc(OC)cc3F)C2)cc1 (stereo unspecified) | 114 µM (active) | > 150 µM (not active) | > 150 µM (not active) |  |  |  |
| Clc1ccccc1CSc1ncn(-c2ccccc2)n1 |  |  |  |  |  | EC50 [12]: 36.9 µM (active); EC50 [13]: 0.42 µM (active); EC50 [14]: 0.191 µM (active) |
